Assay results published in PMC12073402, “A Selective MAP3K1 Inhibitor Facilitates Discovery of NPM1 as a Member of the Network” (Molecules, 2025).

Key:
Assay in all cases: KiNativ kinome profiling in PANC-1 lysate
Type in all cases: binding
PEK = target: T1, PEK (Homo sapiens, UniProt Q9NZJ5); conditions: Lys2
T1 construct: endogenous in cells; host or cells: PANC-1 cell lysate
Excerpt: (§1) To assess target engagement and selectivity, we opted to conduct a kinome screen (KiNativ) in PANC-1 cell lysates. This chemical proteomics (chemoproteomics) methodology allows for the evaluation of small-molecule binding to protein kinases in native systems such as cell lysates. KiNativ utilizes a soluble chemical probe comprising ATP linked to biotin through an acyl-phosphate bond. The probe covalently modifies conserved lysine residues found in the ATP binding site of essentially all protein kinases (Figure 2A). To profile a kinase inhibitor, cell lysates are treated with a vehicle control or inhibitor prior to addition of the desthiobiotin ATP probe. The ATP probe occupies the ATP binding site in the kinase, which enables the conserved lysines to be biotinylated. […] The cell lysates are digested with a protease (trypsin), biotinylated peptides are affinity-enriched on streptavidin beads, and the labeled peptides are analyzed by liquid chromatography–tandem MS (Figure 2B). If an inhibitor binds to a kinase, it competes with the ATP, thus resulting in a loss of that kinase-associated peptide signal, allowing for the quantitative measurement of inhibitor binding. Unlike recombinant enzyme assays, KiNativ IC50 values are a direct measure of active site binding instead of enzymatic activity.
(§2) Kinome profiling quantified the activity of 51-106 against >300 kinases in the PANC-1 cells. The results summarized in Figure 2C are the average of duplicate control and duplicate treated samples with 5 μM of 51-106 or DMSO.
(§3) KiNativ assay with 51-106.
(§4) ATP Loop: ATP binding loop
(§5) Activation Loop: Activation loop
(§6) ATP: ATP site in non-canonical kinase (e.g. lipid kinase)
(§7) Protein Kinase Domain: Other lysine within kinase domain, possibly not in ATP binding site
(§8) Other: Labeling of residue outside of the protein kinase domain, possibly not in ATP binding site
(§9) No change. NB = No Binding (≤ 0)
(§10) >100% increase in MS signal (>2 fold increase)
(§11) Data points inhibited […] & not considered significant are left uncolored
(§12) Note: This KiNativ dataset is the result of an analysis of duplicate treated samples and control samples.
(§13) The % changes in MS signals being reported are statistically significant (Student T -test score < 0.04)

JAK1 domain2 = target: T2, JAK1 domain2 (Homo sapiens, UniProt P23458)
T2 construct: we opted to conduct a kinome screen (KiNativ) in PANC-1 cell lysates; endogenous in cells; host or cells: PANC-1 cell lysate
Excerpt: as §1, §2, §3, §4, §5, §6, §7, §8, §9, §10, §11, §12, §13

MARK4 = target: T3, MARK4 (Homo sapiens, UniProt Q96L34)
T3 construct: endogenous in cells; host or cells: PANC-1
Excerpt: as §1, §2, §3, §4, §5, §6, §7, §8, §9, §10, §11, §12, §13

ULK3 = target: T4, ULK3 (Homo sapiens, UniProt Q6PHR2); conditions: Lys1
T4 construct: endogenous in cells; host or cells: PANC-1 cell lysate
Excerpt: as §1, §2, §3, §4, §5, §6, §7, §8, §9, §10, §11, §12, §13

MLKL = target: T5, MLKL (Homo sapiens, UniProt Q8NB16); conditions: Lys1
T5 construct: endogenous in cells; host or cells: PANC-1
Excerpt: as §1, §2, §3, §4, §5, §6, §7, §8, §9, §10, §11, §12, §13

PI4KB = target: T6, PI4KB (Homo sapiens, UniProt Q9UBF8); conditions: ATP
T6 construct: endogenous in cells; host or cells: PANC-1 cell lysate
Excerpt: as §1, §2, §3, §4, §5, §6, §7, §8, §9, §10, §11, §12, §13

CK1g1, CK1g2, CK1g3 = conditions: 5 µM; ATP Loop; KIGCGNFGELR
Excerpt: as §1, §2, §3, §4, §5, §6, §7, §8, §9, §10, §11, §12, §13

CaMKK1 = target: T7, CaMKK1 (Homo sapiens, UniProt Q8N5S9); conditions: Lys2
T7 construct: endogenous in cells; host or cells: PANC-1 cell lysate
Excerpt: as §1, §2, §3, §4, §5, §6, §7, §8, §9, §10, §11, §12, §13

p38a = target: T8, p38a (Homo sapiens, UniProt Q16539)
T8 construct: endogenous in cells; host or cells: PANC-1 cell lysate
Excerpt: as §1, §2, §3, §4, §5, §6, §7, §8, §9, §10, §11, §12, §13

ARAF = target: T9, ARAF (Homo sapiens, UniProt P10398); conditions: Lys2
T9 construct: endogenous in cells; host or cells: PANC-1 cell lysate
Excerpt: as §1, §2, §3, §4, §5, §6, §7, §8, §9, §10, §11, §12, §13

TAK1 = target: T10, TAK1 (Homo sapiens, UniProt O43318); conditions: Lys2
T10 construct: endogenous in cells; host or cells: PANC-1 cell lysate
Excerpt: as §1, §2, §3, §4, §5, §6, §7, §8, §9, §10, §11, §12, §13

RSK3 domain1 = target: T11, RSK3 domain1 (Homo sapiens, UniProt Q15349); conditions: Lys2
T11 construct: endogenous in cells; host or cells: PANC-1 cell lysate
Excerpt: as §1, §2, §3, §4, §5, §6, §7, §8, §9, §10, §11, §12, §13

FYN, SRC, YES = conditions: 5 µM; ATP Loop; QGAKFPIKWTAPEAALYGR
Excerpt: as §1, §2, §3, §4, §5, §6, §7, §8, §9, §10, §11, §12, §13

TNK1 = target: T12, TNK1 (Homo sapiens, UniProt Q13470); conditions: Lys1
T12 construct: endogenous in cells; host or cells: PANC-1 cell lysate
Excerpt: as §1, §2, §3, §4, §5, §6, §7, §8, §9, §10, §11, §12, §13

RIPK2 = target: T13, RIPK2 (Homo sapiens, UniProt O43353); conditions: Lys2
T13 construct: endogenous in cells; host or cells: PANC-1 cell lysate
Excerpt: as §1, §2, §3, §4, §5, §6, §7, §8, §9, §10, §11, §12, §13

NEK6, NEK7 = conditions: 5 µM; Lys2; DIKPANVFITATGVVK
Excerpt: as §1, §2, §3, §4, §5, §6, §7, §8, §9, §10, §11, §12, §13

RSK2 domain2 = target: T14, RSK2 domain2 (Homo sapiens, UniProt P51812); conditions: Lys2
T14 construct: endogenous in cells; host or cells: PANC-1 cell lysate
Excerpt: as §1, §2, §3, §4, §5, §6, §7, §8, §9, §10, §11, §12, §13

DGKH = target: T15, DGKH (Homo sapiens, UniProt Q86XP1); conditions: ATP
T15 construct: endogenous in cells; host or cells: PANC-1 lysate
Excerpt: as §1, §2, §3, §4, §5, §6, §7, §8, §9, §10, §11, §12, §13

p70S6K = target: T16, p70S6K (Homo sapiens, UniProt P23443); conditions: Lys2
T16 construct: endogenous in cells; host or cells: PANC-1 cell lysate
Excerpt: as §1, §2, §3, §4, §5, §6, §7, §8, §9, §10, §11, §12, §13

ITPK1 = target: T17, ITPK1 (Homo sapiens, UniProt Q13572); conditions: ATP Loop
T17 construct: we opted to conduct a kinome screen (KiNativ) in PANC-1 cell lysates; endogenous in cells; host or cells: PANC-1 cell lysate
Excerpt: as §1, §2, §3, §4, §5, §6, §7, §8, §9, §10, §11, §12, §13

PAN3 = target: T18, PAN3 (Homo sapiens, UniProt Q58A45); conditions: ATP
T18 construct: endogenous in cells; host or cells: PANC-1 cell lysate
Excerpt: as §1, §2, §3, §4, §5, §6, §7, §8, §9, §10, §11, §12, §13

TLK2 = target: T19, TLK2 (Homo sapiens, UniProt Q86UE8)
T19 construct: endogenous in cells; host or cells: PANC-1 cell lysate
Excerpt: as §1, §2, §3, §4, §5, §6, §7, §8, §9, §10, §11, §12, §13

IKKe, TBK1 = conditions: 5 µM; Lys2; DIKPGNIMR
Excerpt: as §1, §2, §3, §4, §5, §6, §7, §8, §9, §10, §11, §12, §13

T6 sequence (Q9UBF8 whole entry): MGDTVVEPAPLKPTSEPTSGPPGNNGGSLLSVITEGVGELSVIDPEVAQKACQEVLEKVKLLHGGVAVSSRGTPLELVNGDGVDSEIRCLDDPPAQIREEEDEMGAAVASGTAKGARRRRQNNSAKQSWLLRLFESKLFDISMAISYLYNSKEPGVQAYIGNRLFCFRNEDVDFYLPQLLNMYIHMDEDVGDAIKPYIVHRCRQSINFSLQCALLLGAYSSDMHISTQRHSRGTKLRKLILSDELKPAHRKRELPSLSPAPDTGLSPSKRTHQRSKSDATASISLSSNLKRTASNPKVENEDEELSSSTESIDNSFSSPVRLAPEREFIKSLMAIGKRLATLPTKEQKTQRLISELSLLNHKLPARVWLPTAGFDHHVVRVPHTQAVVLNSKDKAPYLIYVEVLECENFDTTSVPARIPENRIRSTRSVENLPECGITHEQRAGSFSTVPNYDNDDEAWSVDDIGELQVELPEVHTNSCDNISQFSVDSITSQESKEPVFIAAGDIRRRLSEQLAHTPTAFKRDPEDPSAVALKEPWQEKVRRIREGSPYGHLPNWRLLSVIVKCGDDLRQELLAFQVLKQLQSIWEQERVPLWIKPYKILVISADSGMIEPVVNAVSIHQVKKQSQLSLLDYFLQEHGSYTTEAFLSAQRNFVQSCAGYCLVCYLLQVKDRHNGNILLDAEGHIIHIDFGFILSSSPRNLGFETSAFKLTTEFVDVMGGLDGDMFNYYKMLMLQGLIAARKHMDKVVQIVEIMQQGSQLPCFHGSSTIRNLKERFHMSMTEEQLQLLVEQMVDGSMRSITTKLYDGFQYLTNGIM
T2 sequence (P23458 whole entry, the tested form may be a part): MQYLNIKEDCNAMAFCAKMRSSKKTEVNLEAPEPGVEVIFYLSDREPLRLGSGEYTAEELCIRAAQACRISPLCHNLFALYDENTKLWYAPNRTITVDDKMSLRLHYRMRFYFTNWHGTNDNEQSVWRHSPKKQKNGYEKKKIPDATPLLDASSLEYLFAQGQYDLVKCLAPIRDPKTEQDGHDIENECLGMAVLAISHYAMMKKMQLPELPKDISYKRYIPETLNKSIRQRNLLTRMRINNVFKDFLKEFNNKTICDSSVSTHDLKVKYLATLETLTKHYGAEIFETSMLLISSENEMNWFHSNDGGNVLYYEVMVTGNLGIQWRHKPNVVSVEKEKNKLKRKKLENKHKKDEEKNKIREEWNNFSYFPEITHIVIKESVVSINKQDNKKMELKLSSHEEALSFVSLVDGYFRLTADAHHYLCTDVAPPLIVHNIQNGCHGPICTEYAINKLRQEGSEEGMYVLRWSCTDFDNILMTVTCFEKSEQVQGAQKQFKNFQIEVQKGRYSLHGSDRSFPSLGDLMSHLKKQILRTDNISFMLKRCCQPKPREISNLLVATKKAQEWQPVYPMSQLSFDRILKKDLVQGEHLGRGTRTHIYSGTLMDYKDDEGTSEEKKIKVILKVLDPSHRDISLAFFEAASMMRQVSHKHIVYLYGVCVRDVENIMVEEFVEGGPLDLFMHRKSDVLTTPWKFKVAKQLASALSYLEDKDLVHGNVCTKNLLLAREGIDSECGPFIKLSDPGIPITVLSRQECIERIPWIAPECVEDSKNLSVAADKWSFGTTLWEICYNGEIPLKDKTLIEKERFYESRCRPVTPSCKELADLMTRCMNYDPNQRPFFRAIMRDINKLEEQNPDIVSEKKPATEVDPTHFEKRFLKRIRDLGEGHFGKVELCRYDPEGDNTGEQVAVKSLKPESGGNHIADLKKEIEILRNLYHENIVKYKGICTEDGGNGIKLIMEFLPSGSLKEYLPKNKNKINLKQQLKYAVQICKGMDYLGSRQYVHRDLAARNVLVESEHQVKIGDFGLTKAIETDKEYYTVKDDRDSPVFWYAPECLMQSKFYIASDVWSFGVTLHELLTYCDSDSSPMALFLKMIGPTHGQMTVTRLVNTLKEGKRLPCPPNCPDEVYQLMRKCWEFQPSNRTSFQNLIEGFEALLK
T18 sequence (Q58A45 whole entry): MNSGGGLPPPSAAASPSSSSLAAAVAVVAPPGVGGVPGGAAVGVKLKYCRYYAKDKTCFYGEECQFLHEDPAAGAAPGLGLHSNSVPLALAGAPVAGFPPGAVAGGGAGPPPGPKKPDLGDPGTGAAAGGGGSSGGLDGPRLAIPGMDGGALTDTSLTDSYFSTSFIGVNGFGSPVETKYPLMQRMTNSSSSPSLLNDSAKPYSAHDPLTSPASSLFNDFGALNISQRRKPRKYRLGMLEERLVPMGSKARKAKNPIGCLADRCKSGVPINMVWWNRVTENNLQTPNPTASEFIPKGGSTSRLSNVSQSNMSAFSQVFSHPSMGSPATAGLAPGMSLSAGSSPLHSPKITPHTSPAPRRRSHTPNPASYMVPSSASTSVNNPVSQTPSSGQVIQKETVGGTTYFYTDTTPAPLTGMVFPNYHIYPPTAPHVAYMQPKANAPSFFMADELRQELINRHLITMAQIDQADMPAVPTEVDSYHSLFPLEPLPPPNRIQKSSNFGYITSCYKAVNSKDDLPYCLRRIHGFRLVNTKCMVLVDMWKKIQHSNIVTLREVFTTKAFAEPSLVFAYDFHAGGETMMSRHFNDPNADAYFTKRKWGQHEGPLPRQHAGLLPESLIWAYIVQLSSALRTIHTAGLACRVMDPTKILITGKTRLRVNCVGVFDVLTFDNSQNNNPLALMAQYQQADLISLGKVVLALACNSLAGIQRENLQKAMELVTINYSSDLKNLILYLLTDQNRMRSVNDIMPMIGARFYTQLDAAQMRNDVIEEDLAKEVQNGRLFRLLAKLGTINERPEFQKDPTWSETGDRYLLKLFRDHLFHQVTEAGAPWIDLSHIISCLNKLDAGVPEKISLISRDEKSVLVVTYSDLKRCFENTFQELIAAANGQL
T3 sequence (Q96L34 whole entry): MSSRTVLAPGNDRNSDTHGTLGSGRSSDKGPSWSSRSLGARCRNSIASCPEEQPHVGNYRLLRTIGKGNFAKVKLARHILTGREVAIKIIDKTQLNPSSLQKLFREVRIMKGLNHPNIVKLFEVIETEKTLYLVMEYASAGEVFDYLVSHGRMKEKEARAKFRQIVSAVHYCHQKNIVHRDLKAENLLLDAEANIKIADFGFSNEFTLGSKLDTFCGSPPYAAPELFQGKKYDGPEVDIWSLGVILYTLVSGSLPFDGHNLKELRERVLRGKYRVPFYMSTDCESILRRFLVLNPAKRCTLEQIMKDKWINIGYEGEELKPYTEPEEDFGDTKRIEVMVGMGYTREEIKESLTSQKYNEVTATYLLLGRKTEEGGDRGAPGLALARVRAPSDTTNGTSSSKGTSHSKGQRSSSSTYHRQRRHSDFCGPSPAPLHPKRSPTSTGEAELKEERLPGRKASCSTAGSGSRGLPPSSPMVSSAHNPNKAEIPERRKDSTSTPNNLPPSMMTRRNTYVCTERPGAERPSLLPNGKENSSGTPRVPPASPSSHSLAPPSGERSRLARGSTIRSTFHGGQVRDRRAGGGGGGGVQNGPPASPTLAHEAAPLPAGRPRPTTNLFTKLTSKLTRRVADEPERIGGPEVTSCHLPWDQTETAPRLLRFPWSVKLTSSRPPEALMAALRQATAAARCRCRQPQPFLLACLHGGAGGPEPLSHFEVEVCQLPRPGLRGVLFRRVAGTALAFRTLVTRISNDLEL
T19 sequence (Q86UE8 whole entry): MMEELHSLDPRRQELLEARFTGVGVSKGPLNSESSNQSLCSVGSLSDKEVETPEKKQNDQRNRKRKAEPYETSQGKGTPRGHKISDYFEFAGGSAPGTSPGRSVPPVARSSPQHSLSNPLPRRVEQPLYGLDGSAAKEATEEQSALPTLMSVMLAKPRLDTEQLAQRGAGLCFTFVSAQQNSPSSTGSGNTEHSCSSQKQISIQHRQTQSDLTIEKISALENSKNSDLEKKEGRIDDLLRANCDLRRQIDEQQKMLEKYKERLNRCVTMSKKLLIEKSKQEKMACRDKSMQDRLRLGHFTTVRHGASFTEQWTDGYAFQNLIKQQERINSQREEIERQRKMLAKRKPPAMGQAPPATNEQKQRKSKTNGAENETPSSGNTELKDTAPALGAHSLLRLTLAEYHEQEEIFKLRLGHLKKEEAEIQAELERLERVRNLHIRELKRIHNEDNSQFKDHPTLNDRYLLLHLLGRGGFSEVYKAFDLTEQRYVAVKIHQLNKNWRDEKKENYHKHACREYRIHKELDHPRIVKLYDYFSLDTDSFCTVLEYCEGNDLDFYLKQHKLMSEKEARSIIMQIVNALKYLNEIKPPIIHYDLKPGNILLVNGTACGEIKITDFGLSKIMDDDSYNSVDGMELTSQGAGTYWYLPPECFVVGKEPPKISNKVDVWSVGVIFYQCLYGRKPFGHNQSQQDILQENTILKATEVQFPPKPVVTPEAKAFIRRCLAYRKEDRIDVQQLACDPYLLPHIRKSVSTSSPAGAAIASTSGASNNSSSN
T8 sequence (Q16539 whole entry): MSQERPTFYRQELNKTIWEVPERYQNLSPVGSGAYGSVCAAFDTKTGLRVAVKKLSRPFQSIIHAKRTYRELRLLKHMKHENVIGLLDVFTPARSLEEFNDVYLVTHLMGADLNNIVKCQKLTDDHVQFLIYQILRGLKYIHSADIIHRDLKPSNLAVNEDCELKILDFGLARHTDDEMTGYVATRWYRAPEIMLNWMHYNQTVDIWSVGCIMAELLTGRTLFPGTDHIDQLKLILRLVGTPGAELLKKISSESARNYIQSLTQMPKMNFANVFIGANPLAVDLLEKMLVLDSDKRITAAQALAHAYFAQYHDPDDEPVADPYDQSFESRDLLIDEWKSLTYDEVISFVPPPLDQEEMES

`Cn1cc(-c2cnc3ccc(NC(=O)Nc4ccc(F)c(C(F)(F)F)c4)cc3n2)cn1` [51-106, 1-(4-Fluoro-3-(trifluoromethyl)phenyl)-3-(3-(1-methyl-1H-pyrazol-4-yl)quinoxalin-6-yl)urea] was tested. Which inhibition at 5 µM (PEK) did it give?
Its inhibition at 5 µM is 10.9%.

What about the “% Inhibition” value (JAK1 domain2; 5 µM, ATP Loop, IGDFGLTKAIETDKEYYTVK) of the same compound?
Its value is “NB (NB = No Binding (≤ 0))”.

What about the inhibition at 5 µM (JAK1 domain2; Lys1, […]) of the same compound?
Its inhibition at 5 µM is ≤ 0%.

What about the inhibition at 5 µM (MARK4; Lys1, EVAIKIIDKTQLNPSSLQK) of the same compound?
Its inhibition at 5 µM is ≤ 0%.

And the inhibition at 5 µM (MARK4; Lys2, DLKAENLLLDAEANIK)?
Its inhibition at 5 µM is 10.3%.

What about the inhibition at 5 µM (ULK3) of the same compound?
The inhibition at 5 µM was ≤ 0%.

What about the inhibition at 5 µM (MLKL) of the same compound?
The inhibition at 5 µM was ≤ 0%.

What about the inhibition at 5 µM (PI4KB; LLSVIVKCGDDLRQELLAFQVLK) of the same compound?
Its inhibition at 5 µM is ≤ 0%.

And the inhibition at 5 µM (PI4KB; VPHTQAVVLNSKDK)?
The inhibition at 5 µM was 3.9%.

And the “% Inhibition” value (CK1g1, CK1g2, CK1g3)?
The value was 11.7%.

What about the inhibition at 5 µM (CaMKK1) of the same compound?
The inhibition at 5 µM was ≤ 0%.

What about the inhibition at 5 µM (p38a; Lys2, DLKPSNLAVNEDCELK) of the same compound?
The inhibition at 5 µM was ≤ 0%.

And the inhibition at 5 µM (p38a; Other, QELNKTIWEVPER)?
Its inhibition at 5 µM is 7.5%.

And the inhibition at 5 µM (ARAF)?
Its inhibition at 5 µM is ≤ 0%.

What about the inhibition at 5 µM (TAK1) of the same compound?
The inhibition at 5 µM was ≤ 0%.

And the inhibition at 5 µM (RSK3 domain1)?
Its inhibition at 5 µM is ≤ 0%.

What about the “% Inhibition” value (FYN, SRC, YES) of the same compound?
The value was 14.0%.

What about the inhibition at 5 µM (TNK1) of the same compound?
Its inhibition at 5 µM is 1.9%.

And the inhibition at 5 µM (RIPK2)?
Its inhibition at 5 µM is ≤ 0%.

And the “% Inhibition” value (NEK6, NEK7)?
Its value is 24.8%.

What about the inhibition at 5 µM (RSK2 domain2) of the same compound?
Its inhibition at 5 µM is 5.7%.

And the inhibition at 5 µM (DGKH)?
Its inhibition at 5 µM is ≤ 0%.

And the inhibition at 5 µM (p70S6K)?
The inhibition at 5 µM was ≤ 0%.

And the inhibition at 5 µM (ITPK1)?
Its inhibition at 5 µM is ≤ 0%.

What about the inhibition at 5 µM (PAN3; IQKSSNFGYITSCYK) of the same compound?
The inhibition at 5 µM was ≤ 0%.

What about the inhibition at 5 µM (PAN3; VMDPTKILITGK) of the same compound?
Its inhibition at 5 µM is 4.4%.

And the inhibition at 5 µM (TLK2; Lys1, YVAVKIHQLNK)?
Its inhibition at 5 µM is 1.2%.

And the inhibition at 5 µM (TLK2; Lys2, YLNEIKPPIIHYDLKPGNILLVNGTACGEIK)?
The inhibition at 5 µM was 1.7%.

And the “% Inhibition” value (IKKe, TBK1)?
Its value is 10.6%.
